According to patent US20250320562A1, “ALTERNATIVELY SPLICED ISOFORM IN CANCER AND METHODS OF USE THEREOF” (THE CHILDREN'S HOSPITAL OF PHILADELPHIA, priority 2022, published 2025):

Experiments:
[1] = tested on: REH cells over-expressing the WT, E4a or R238W NT5C2 isoforms; experiment: 6-MP chemoresistance in vivo in xenografted B-ALL cells expressing NT5C2 isoforms; design: species or system mice; details: xenografted B-ALL cells expressing NT5ex4a
Text: FIG. 5: NT5C2 E4a alternative isoform in 6-MP resistance. (Left panel) Bioluminescent mouse image of mice engrafted with REH cells over-expressing the WT, E4a or R238W NT5C2 isoforms at different time points. (Right panel) Flux quantification of mice engrafted with REH cells over-expressing the WT, E4a or R238W NT5C2 isoforms at different time points.
(§1) Consistent with this biochemical finding, in reconstituted NT5C2low B-ALL cells NT5ex4a conferred the same level of resistance to 6-MP as the variant with the R238W hotspot mutation (2-log difference in IC50). […] Therefore, inclusion of NT5C2 exon 4a phenocopies relapse-specific mutations and could serve as both a valuable predictive biomarker in B-ALL and potentially chronic myelogenous (CML) and acute myeloid leukemia (AML).

[2] = tested on: reconstituted NT5C2low B-ALL cells; experiment: Resistance to 6-MP in reconstituted NT5C2low B-ALL cells expressing NT5C2 isoforms; format: cell-based
Text: FIGS. 8A-8C: Possible effects of phosphorylation of the NT5C2 activity. (FIG. 8A) Predicted serine and threonine phosphorylation sites in the NT5C2 amino acid sequence. […] (SEQ ID NOS: 5-24) (FIG. 8B) Top ten kinases predicted to phosphorylate the NT5C2 exon NT5ex4a-encoded peptide. (FIG. 8C) Increased pro-survival activity of NT5C2 E4a isoform where the Ser-121 has been replaced by a phosphomimetic aspartic acid (S121D). Compare curves with rectangles and triangles.
as §1
To determine the mechanism underlying the pro-survival activity of the NT5C2 E4a isoform, it was considered that it might be phosphorylated. Indeed, the application of predictive algorithms identified serine at position 121 as the residue in exon NT5ex4a most likely to be phosphorylated (FIG. 8A). Based on the amino acid context, it most strongly resembles consensus sites for kinases of the AGC, CAMK, and PIKK families. The latter includes such important cancer-related kinases as ATR and ATM (FIG. 8B). […]

MHHCALL4 cell line = experiment: 6-MP dose-response in CRISPR/Cas9 NT5C2-KO and NT5ex4a (E4a) KO models, MHHCALL4; format: cell-based
Text: (§2) FIG. 4: NT5C2 KO in MHHCALL4. (Top left panel) CRISPR/CAS9 strategy for the generation of total NT5C2 or NT5ex4a isoform specific KOs, representing the exons that will be targeted for each model. (Top right panel) Western-Blot of the NT5C2 levels on the parental, NT5C2-KO and NT5ex4a (E4a) KO models in the 697 and MHHCALL4 cell lines.
as §1

697 cell line = experiment: 6-MP dose-response in CRISPR/Cas9 NT5C2-KO model, 697; format: cell-based
Text: as §2

[3] = tested on: B-ALL cells expressing NT5ex4a; experiment: In vitro sensitivity to mizoribine of cells expressing the non-canonical NT5C2 isoform; format: cell-based; details: expression of the non-canonical isoform NT5ex4a
Text: FIG. 6: Mizoribine specifically blocks the […], adding extra pressure in NT5C2 hyperactive cells (Dieck et al., Blood, 2019). (Left panel) Mechanism of action of 6-MP and 6-TG purine analogs. (Right panel) Effects of NT5C2 activating-mutations on purine bases synthesis and degradation.
as §1

Row | Structure (SMILES) | chemoresistance in vivo [1] | survival in the presence of 6-MP ([2]; E4a isoform with Ser-121 replaced by aspartic acid (S121D) versus parental E4a or the alanine derivative) | difference in IC50 (resistance to 6-MP) ([2]; NT5ex4a, same level of resistance as the R238W hotspot mutation variant, compared to the canonical isoform) | cell survival in the presence of 6-MP (MHHCALL4 cell line; CRISPR/Cas9 engineered NT5ex4a KO cells) | sensitivity to 6-MP treatment (dose-response plots) (MHHCALL4 cell line; E4a-KO, E4a-high expression MHHCALL4) | sensitivity to 6-MP treatment (dose-response plots) (MHHCALL4 cell line; NT5C2-KO, MHHCALL4) | sensitivity to 6-MP treatment (dose-response plots) (697 cell line) | sensitivity to mizoribine [3]
1 | S=c1nc[nH]c2nc[nH]c12 [6-MP, mercaptopurine] | chemoresistance in vivo was further confirmed | stronger survival advantages | 2 log | reduced cell survival | increased sensitivity | increased sensitivity | increased sensitivity | –
2 | NC(=O)c1ncn([C@@H]2O[C@H](CO)[C@@H](O)[C@H]2O)c1O [mizoribine, 4-carbamoyl-1-β-d-ribofuranosyl imirdozolium] | – | – | – | – | – | – | – | collateral sensitivity
